Laboratory results as given in patent US8940913B2, “Herbicides” (Syngenta Crop Protection, LLC, priority 2007, dated 2015).

How the values were obtained:
Type in all cases: in vivo
Setaria faberi (SETFA) [1] = assay: Pre-emergence herbicidal activity, glasshouse pot test; settings: 480 h, rate 250 g/ha, evaluated 20 days later, 100=total damage to plant, 0=no damage to plant
Procedure: (§1) Monocotyledonous and dicotyledonous test plants were sown in standard soil in pots. After cultivation for one day (pre-emergence) or after 10 days cultivation (post-emergence) under controlled conditions in a glasshouse, the plants were sprayed with an aqueous spray solution derived from the formulation of the technical active ingredient in 0.6 ml acetone and 45 ml formulation solution containing 10.6% Emulsogen EL (Registry number 61791-12-6), 42.2% N-methylpyrrolidone, 42.2% dipropylene glycol monomethyl ether (Registry number 34590-94-8) and 0.2% X-77 (Registry number 11097-66-8). The test plants were then grown in a greenhouse under optimum conditions until, 15 days later for post-emergence and 20 days for pre-emergence, the test was evaluated (100=total damage to plant; 0=no damage to plant). Test Plants: Alopecurus myosuroides (ALOMY), Avena fatua (AVEFA), Lolium perenne (LOLPE), Setaria faberi (SETFA), Digitaria sanguinalis (DIGSA), Echinochloa crus-galli (ECHCG)

Lolium perenne (LOLPE) [2] = assay: as above; settings: 480 h, rate 250 g/ha, evaluated 20 days later, 100=total damage to plant, 0=no damage to plant
Procedure: as §1

[3] = test system: Digitaria sanguinalis (DIGSA); assay: as above; settings: 480 h, rate 250 g/ha, evaluated 20 days later, 100=total damage to plant, 0=no damage to plant
Procedure: as §1

Avena fatua (AVEFA) [4] = assay: as above; settings: 480 h, rate 250 g/ha, evaluated 20 days later, 100=total damage to plant, 0=no damage to plant
Procedure: as §1

[5] = test system: Echinochloa crus-galli (ECHCG); assay: as above; settings: 480 h, rate 250 g/ha, evaluated 20 days later, 100=total damage to plant, 0=no damage to plant
Procedure: as §1

[6] = test system: Alopecurus myosuroides (ALOMY); assay: as above; settings: 480 h, rate 250 g/ha, evaluated 20 days later, 100=total damage to plant, 0=no damage to plant
Procedure: as §1

Setaria faberi (SETFA) [7] = assay: Post-emergence herbicidal activity, glasshouse pot test; settings: 360 h, rate 125 g/ha, evaluated 15 days later, 100=total damage to plant, 0=no damage to plant
Procedure: as §1

Lolium perenne (LOLPE) [8] = assay: as above; settings: 360 h, rate 125 g/ha, evaluated 15 days later, 100=total damage to plant, 0=no damage to plant
Procedure: as §1

[9] = test system: Digitaria sanguinalis (DIGSA); assay: as above; settings: 360 h, rate 125 g/ha, evaluated 15 days later, 100=total damage to plant, 0=no damage to plant
Procedure: as §1

Avena fatua (AVEFA) [10] = assay: as above; settings: 360 h, rate 125 g/ha, evaluated 15 days later, 100=total damage to plant, 0=no damage to plant
Procedure: as §1

[11] = test system: Echinochloa crus-galli (ECHCG); assay: as above; settings: 360 h, rate 125 g/ha, evaluated 15 days later, 100=total damage to plant, 0=no damage to plant
Procedure: as §1

[12] = test system: Alopecurus myosuroides (ALOMY); assay: as above; settings: 360 h, rate 125 g/ha, evaluated 15 days later, 100=total damage to plant, 0=no damage to plant
Procedure: as §1

Row | SMILES | pest or weed control at 250 g/ha (Setaria faberi (SETFA) [1]) | pest or weed control at 250 g/ha (Lolium perenne (LOLPE) [2]) | pest or weed control at 250 g/ha [3] | pest or weed control at 250 g/ha (Avena fatua (AVEFA) [4]) | pest or weed control at 250 g/ha [5] | pest or weed control at 250 g/ha [6] | pest or weed control at 125 g/ha (Setaria faberi (SETFA) [7]) | pest or weed control at 125 g/ha (Lolium perenne (LOLPE) [8]) | pest or weed control at 125 g/ha [9] | pest or weed control at 125 g/ha (Avena fatua (AVEFA) [10]) | pest or weed control at 125 g/ha [11] | pest or weed control at 125 g/ha [12]
1 | Cc1cc(-c2ccccc2)cc(C)c1C1=C(OC(=O)C(C)C)[C@H]2[C@@H](C1=O)[C@@H]1CC[C@H]2O1 [Compound P2] | 100% | 90% | 100% | 70% | 80% | 100% | 100% | 90% | 90% | 80% | 100% | 100%
2 | CC(=O)OC1=C(c2c(C)cc(-c3ccccc3)cc2C)C(=O)[C@@H]2[C@H]1[C@H]1CC[C@@H]2O1 [Compound P3] | 100% | 100% | 100% | 60% | 80% | 100% | 90% | 100% | 80% | 80% | 100% | 100%
3 | Cc1cc(-c2ccccc2)cc(C)c1C1=C(OC(=O)c2c(C)noc2C)[C@H]2[C@@H](C1=O)[C@@H]1CC[C@H]2O1 [Compound P4] | 100% | 90% | 100% | 50% | 100% | 100% | 80% | 90% | 80% | 90% | 100% | 100%
4 | Cc1cc(-c2ccccc2)cc(C)c1C1=C(OC(=O)C(C)(C)C)[C@H]2[C@@H](C1=O)[C@]1(C)CC[C@@]2(C)O1 [Compound P5] | 100% | 70% | 100% | 0% | 70% | 100% | 90% | 40% | 100% | 20% | 100% | 70%
5 | CC(=O)OC1=C(c2c(C)cc(-c3ccccc3)cc2C)C(=O)[C@@H]2[C@H]1[C@@]1(C)CC[C@]2(C)O1 [Compound P6] | 100% | 70% | 100% | 30% | 100% | 80% | 100% | 60% | 90% | 50% | 100% | 70%
6 | Cc1cc(-c2ccccc2)cc(C)c1C1=C(OC(=O)C(C)(C)C)[C@H]2[C@@H](C1=O)[C@]1(C)CC[C@H]2O1 [Compound P7] | 100% | 100% | 100% | 90% | 90% | 100% | 100% | 80% | 100% | 100% | 100% | 100%
